Data from patent publication US6652865B2, “Method and formulation for decreasing statin metabolism” (Gattefosse Holding, priority 2001, dated 2003).

Tested on: human intestinal microsomes
Experiment: Reduction in the intestinal barrier effect: simvastatin remaining after incubation with human intestinal microsomes
Conditions: 12 μmol, 1 mg/ml microsomes, 37° C.
Experimental: The test is carried out in vitro using human intestinal microsomes containing:
0.09 nmol/mg of cytochromes P450,
0.77 nmol/min/mg of cytochromes P450 3 A 4.
1 mg/ml of microsomes is then placed in contact:
with a regenerating system having the following composition:
followed by equilibration at 37° C. for 3 minutes.
100 μl aliquots are mixed with a solution of 400 μl of a 50/50 mixture of ice and acetonitrile at 0, 15, 30, 60, 120 and 180 minutes. Testosterone is tested in parallel as control component.
The conditions for carrying out the HPLC are as follows:
The mass spectrometer used is known under the reference PE SCIEX 150.

C[C@]12CC[C@H]3[C@@H](CCC4=CC(=O)CC[C@@]43C)[C@@H]1CC[C@@H]2O [TESTOSTERONE, Testosterone]
PERCENTAGE REMAINING (time 0 min): 100%
PERCENTAGE REMAINING (time 15 min): completely disappeared
PERCENTAGE REMAINING (time 180 min): 0%
